Data from patent publication US6790838B2, “Combinations and methods for promoting in vivo liver cell proliferation and enhancing in vivo liver-directed gene transduction” (Amgen, Inc., priority 1999, dated 2004).

Legend:
hepatocytes [1] = conditions: retroviral vector given after growth factor administration; literature reports (Bosch 1996, Kosai 1998, Forbes 1998); cited from earlier work
hepatocytes [2] = type: in vivo, rat; conditions: for proportion of hepatocytes transfected/transduced (β-galactosidase): growth factor at hour 0, 1 ml retrovirus intraportally at 24 hours, killed 9 days after vector; for zones of the liver where transfected hepatocytes were found: intraportal vector at 24 hours, 9 days after vector
Description: Animals were anesthetized with isoflurane. A midline laparotomy was performed, the bowel was deflected to the left and wrapped in normal saline-soaked gauze. The portal vein and hepatic artery were clamped using micro-aneurysm clips, the portal vein was cannulated with a 26-gauge needle proximal to the clip and 1 ml of retroviral supernatant was injected over 5 minutes. Hemostasis was achieved by direct pressure to the portal vein and topical thrombin (Sigma) application. The clips were removed and the abdomen sutured, and the animals were allowed to recover in a warm, quite environment. […] For peripheral vein injection, 1 ml of the retrovirus/DOGS complex was injected via tail vein as a bolus.
Transduction of liver cells was measured by β-galactosidase activity. Animals were anesthetized and sacrificed by exsanguination. The liver was removed and frozen in liquid nitrogen. Ten-micron frozen sections were cut on to glass slides, fixed in a solution of 1.25% glutaraldehyde at 4° C., washed with phosphate buffered saline (PBS) then covered in X-gal (Gibco BRL, Grand Island, N.Y.) solution (1 mg/ml, pH 7.4) and incubated overnight at 37° C. Sections were then washed in PBS, counterstained lightly with eosin or carmalum stain, dehydrated and mounted in pertex (Cellpath, Hemel Hempstead, UK). The proportion of hepatocytes expressing nuclear β-galactosidase was calculated by counting 2000 hepatocytes per section from three separate areas.
At hour 0, several groups of four rats received an administration of either a single growth factor (either 4 mg/kg T3 or 1 mg/kg KGF) or the combination of 4 mg/kg T3/1 mg/kg KGF. A control group of three rats received injections of the growth factor diluents only. At 24 hours all rats were injected intraportally with 1 ml of retrovirus during temporary hepatic artery and portal vein occlusion. All rats were killed 9 days following vector administration.

hepatocytes [3] = test: Hepatocyte proliferation in vivo by BrdU labeling after growth factor injection; design: species or system rat; conditions: for zones of the liver showing cell proliferation / time after injection having maximum liver cell proliferation: KGF 1 mg/kg or T3 4 mg/kg s.c.; for proportion of hepatocytes proliferating (BrdU labelled, S-phase) at 24 hours: T3 4 mg/kg and/or KGF 1 mg/kg s.c. at 0 hours, BrdU 1 hour before sacrifice; for dose producing maximal hepatocyte proliferation at 24 hours: dose response curves, subcutaneous injection, single factor; for time after injection having maximum liver cell proliferation: time course 6-30 hours
Description: Male Wistar rats weighing 200-250 grams were used. They were housed in a temperature and light controlled room (12 hour light/dark cycle) and were allowed water and food ad libitum.
T3 (Sigma, St. Louis, Mo. USA), 4 mg per kilogram of body weight was dissolved in 100 μl of 0.01 M NaOH in […] NaCl and administered by subcutaneous injection in the flank region of the animal.
Lyophilized KGF (full lenght recombinant KGF, AMGEN, Thousand Oaks, Calif.) 1 mg per kilogram of body weight was dissolved in 100 μl of a suitable buffer (0.01% by weight polyoxyethylenesorbitan monolaurate (TWEEN 20, Sigma) solution) and administered by subcutaneous injection in the flank region of the animal.
Measurement of liver cell proliferation was performed by BrdU labeling. BrdU (Sigma) (50 mg/kg dissolved in 800 μl of 0.9% NaCl) was injected intraperitoneally 1 hour prior to sacrifice. Livers of the animals were removed and fixed in 60% methanol, 30% chloroform and 10% glacial acetic acid before routine histological processing and embedding in wax blocks. The incorporation of BrdU into hepatic nuclei was detected in 4 μm thick sections using a mouse monoclonal antibody (Dako, Glostrup, Denmark), followed by a biotinilated rabbit anti-mouse secondary antibody (Dako). Visualization was achieved by the indirect peroxidase technique using diaminobenzidine tetrahydrochloride dihydrate (Aldrich Chemical, Milwaukee, Wis. USA) as a substrate. The labeling index and percentage of hepatic mitoses was determined by counting 2000 hepatocytes per section from consecutive light microscopy fields. See Forbes, et al., Gene Therapy 5:552-555 at 553 (1998)(incorporated herein by reference in its entirety).
Dose response curves were initially performed to identify the dose at which KGF and T3 independently cause maximum hepatocyte proliferation at 24 hours.
The times after injection having maximum liver cell proliferation (as measured by DNA synthesis), were also independently established for each of the individual factors. An injection corresponding to the dose producing maximal cell proliferation, as established in Example 1, was independently administered to 2 groups of subjects, one group for each factor. Dividing cells were labelled by administering BrdU 1 hour prior to sacrifice. At 6, 9, 12, 15, 18, 24, and 30 hours after injection three animals of each group were sacrificed and labelled liver cells counted.
While searching for a manner of producing a clinically acceptable level of liver cell proliferation without a need for prior injury to the liver, a series of experiments were performed whereby a combination of factors was administered to subjects and liver cell proliferation measured 24 hours after administration. […] factor combinations were independently tested, each combination in a different group of animals. A first group received 4 mg/kg T3 at 0 hours. A second group received 1 mg/kg KGF at 0 hours. A third group received 1 mg/kg KGF and 4 mg/kg T3 at 0 hours. A fourth group served as control and received the vehicle or diluent only.

In the case of “hepatocyte growth factor: hepatocyte growth factor, cited from Kosai et al.”, the “liver cells (hepatocytes) transduced in vivo” value (from here on “liver cells”) (hepatocytes [1]) is listed as 1.3%.

With `N[C@@H](Cc1cc(I)c(Oc2ccc(O)c(I)c2)c(I)c1)C(=O)O` [T3, tri-iodothyronine, reference compound] the “proportion of hepatocytes transfected/transduced (β-galactosidase)” value (hepatocytes [2]) was “approximately 1.2%”, the “zones of the liver where transfected hepatocytes were found” value (hepatocytes [2]) was “mostly found in the mid-zonal region” and the “zones of the liver showing cell proliferation” value (hepatocytes [3]) was “predominantly in the mid-zonal region”. The “proportion of hepatocytes proliferating (BrdU labelled, S-phase) at 24 hours” value (hepatocytes [3]) was “approximately 10%”, the “dose producing maximal hepatocyte proliferation at 24 hours” value (hepatocytes [3]) was 4 mg/kg and the “time after injection having maximum liver cell proliferation” value (hepatocytes [3]) was 24 h. The “liver cells” value (hepatocytes [1]) was “about 1.3%”.

B1: KGF: full length recombinant keratinocyte growth factor polypeptide (AMGEN) (protein, UniProt P21781 1-194, looked up)
chain: MHKWILTWILPTLLYRSCFHIICLVGTISLACNDMTPEQMATNVNCSSPERHTRSYDYMEGGDIRVRRLFCRTQWYLRIDKRGKVKGTQEMKNNYNIMEIRTVAVGIVAIKGVESEFYLAMNKEGKLYAKKECNEDCNFKELILENHYNTYASAKWTHNGGEMFVALNQKGIPVRGKKTKKEQKTAHFLPMAIT
modifications: full-length
With B1 the “proportion of hepatocytes transfected/transduced (β-galactosidase)” value (hepatocytes [2]) was “approximately 1%”, the “zones of the liver where transfected hepatocytes were found” value (hepatocytes [2]) was “found in all zones of the liver” and the “zones of the liver showing cell proliferation” value (hepatocytes [3]) was “all zones of the liver”. The “proportion of hepatocytes proliferating (BrdU labelled, S-phase) at 24 hours” value (hepatocytes [3]) was “approximately 9%”, the “dose producing maximal hepatocyte proliferation at 24 hours” value (hepatocytes [3]) was 1 mg/kg and the “time after injection having maximum liver cell proliferation” value (hepatocytes [3]) was 24 h. The “liver cells” value (hepatocytes [1]) was 2%.
